From US20200055839A1 (priority 2017, published 2020)

The compounds below were run on NL-RLuc virus (assay: Inhibition of HIV replication (NL-RLuc virus, luciferase readout in MT-2 cells)). Settings: Human immunodeficiency virus 1, MT2, 120 h, MT-2 cells infected with NL-RLuc virus, 5 days of incubation, 10% FBS, at least 2 experiments.
Assay type: cell-based
In short: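 MT-2 cells infected with NL4-3-derived virus carrying Renilla luciferase in place of part of nef, grown 5 days with serial compound dilutions in RPMI 1640/10% FBS. Virus growth read as luciferase expression. EC50 from median effect equation, at least 2 experiments.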

Compound	EC50
Cc1ncc(-c2cccc3ccccc23)c(N2CCC(C)(C)CC2)c1[C@H](OC(C)(C)C)C(=O)O [Example 182, (2S)-2-(tert-Butoxy)-2-[4-(4,4-dimethylpiperidin-1-yl)-2-methyl-5-(naphthalen-1-yl)pyridin-3-yl]acetic acid]	27 nM
Cc1ncc(-c2ccc3ccccc3c2)c(N2CCC(C)(C)CC2)c1[C@H](OC(C)(C)C)C(=O)O [Example 183, (2S)-2-(tert-Butoxy)-2-[4-(4,4-dimethylpiperidin-1-yl)-2-methyl-5-(naphthalen-2-yl)pyridin-3-yl]acetic acid]	6 nM
Cc1ncc(-c2cccc3cccnc23)c(N2CCC(C)(C)CC2)c1[C@H](OC(C)(C)C)C(=O)O [Example 184, (2S)-2-(tert-Butoxy)-2-[4-(4,4-dimethylpiperidin-1-yl)-2-methyl-5-(quinolin-8-yl)pyridin-3-yl]acetic acid]	8 nM
Cc1ccc(-c2cnc(C)c([C@H](OC(C)(C)C)C(=O)O)c2N2CCC(C)(C)CC2)nc1 [Example 185, (2S)-2-(tert-Butoxy)-2-[4′-(4,4-dimethylpiperidin-1-yl)-5,6′-dimethyl-[2, 3′-bipyridine]-5′-yl]acetic acid]	11 nM
Cc1ncc(-c2ccccn2)c(N2CCC(C)(C)CC2)c1[C@H](OC(C)(C)C)C(=O)O [Example 186, (2S)-2-(tert-Butoxy)-2-[4′-(4,4-dimethylpiperidin-1-yl)-6′-methyl-[2, 3′-bipyridine]-5′-yl]acetic acid]	37 nM
Cc1ncc(-c2ncccn2)c(N2CCC(C)(C)CC2)c1[C@H](OC(C)(C)C)C(=O)O [Example 187, (2S)-2-(tert-Butoxy)-2-[4-(4,4-dimethylpiperidin-1-yl)-2-methyl-5-(pyrimidin-2-yl)pyridin-3-yl]acetic acid]	107 nM
COc1cccc(-c2cnc(C)c([C@H](OC(C)(C)C)C(=O)O)c2N2CCC(C)(C)CC2)n1 [Example 189, (S)-2-(tert-Butoxy)-2-(4′-(4,4-dimethylpiperidin-1-yl)-6-methoxy-6′-methyl-[2, 3′-bipyridin]-5′-yl)acetic acid]	41 nM
Cc1nc(CN2CCC3(CCC3)CC2)c(-c2ccccc2)c(N2CCC(C)(C)CC2)c1[C@H](OC(C)(C)C)C(=O)O [Example 190, (2S)-2-[6-({7-Azaspiro[3.5]nonan-7-yl}methyl)-4-(4,4-dimethylpiperidin-1-yl)-2-methyl-5-phenylpyridin-3-yl]-2-(tert-butoxy)acetic acid]	3 nM
Cc1nc(CN2CCC3(CCC3)CC2)c(-c2ccc(F)cc2)c(N2CCC(C)(C)CC2)c1[C@H](OC(C)(C)C)C(=O)O [Example 191, (2S)-2-[6-({7-Azaspiro[3.5]nonan-7-yl}methyl)-4-(4,4-dimethylpiperidin-1-yl)-5-(4-fluorophenyl)-2-methylpyridin-3-yl]-2-(tert-butoxy)acetic acid]	2 nM
COc1ccc(-c2c(CN3CCC4(CCC4)CC3)nc(C)c([C@H](OC(C)(C)C)C(=O)O)c2N2CCC(C)(C)CC2)cc1 [Example 192, (2S)-2-[6-({7-Azaspiro[3.5]nonan-7-yl}methyl)-4-(4,4-dimethylpiperidin-1-yl)-5-(4-methoxyphenyl)-2-methylpyridin-3-yl]-2-(tert-butoxy)acetic acid]	1 nM
Cc1nc(CN2CCC3(CCC3)CC2)c(-c2cc(F)c(F)c(F)c2)c(N2CCC(C)(C)CC2)c1[C@H](OC(C)(C)C)C(=O)O [Example 193, (2S)-2-[6-({7-Azaspiro[3.5]nonan-7-yl}methyl)-4-(4,4-dimethylpiperidin-1-yl)-2-methyl-5-(3,4,5-trifluorophenyl)pyridin-3-yl]-2-(tert-butoxy)acetic acid]	4 nM
COc1c(F)cc(-c2c(CN3CCC4(CCC4)CC3)nc(C)c([C@H](OC(C)(C)C)C(=O)O)c2N2CCC(C)(C)CC2)cc1F [Example 194, (2S)-2-[6-({7-Azaspiro[3.5]nonan-7-yl}methyl)-5-(3,5-difluoro-4-methoxyphenyl)-4-(4,4-dimethylpiperidin-1-yl)-2-methylpyridin-3-yl]-2-(tert-butoxy)acetic acid]	0.6 nM
Cc1nc(CN2CCC3(CCC3)CC2)c(-c2ccc(F)c(F)c2)c(N2CCC(C)(C)CC2)c1[C@H](OC(C)(C)C)C(=O)O [Example 195, (2S)-2-[6-({7-Azaspiro[3.5]nonan-7-yl}methyl)-5-(3,4-difluorophenyl)-4-(4,4-dimethylpiperidin-1-yl)-2-methylpyridin-3-yl]-2-(tert-butoxy)acetic acid]	1 nM
COc1c(F)cc(-c2c(CN3CCC3)nc(C)c([C@H](OC(C)(C)C)C(=O)O)c2N2CCC(C)(C)CC2)cc1F [Example 196, (2S)-2-{6-[(Azetidin-1-yl)methyl]-5-(3,5-difluoro-4-methoxyphenyl)-4-(4,4-dimethylpiperidin-1-yl)-2-methylpyridin-3-yl}-2-(tert-butoxy)acetic acid]	19 nM
COc1c(F)cc(-c2c(CN(C)C)nc(C)c([C@H](OC(C)(C)C)C(=O)O)c2N2CCC(C)(C)CC2)cc1F [Example 197, (2S)-2-(tert-Butoxy)-2-[5-(3,5-difluoro-4-methoxyphenyl)-6-[(dimethylamino)methyl]-4-(4,4-dimethylpiperidin-1-yl)-2-methylpyridin-3-yl]acetic acid]	11 nM
COc1c(F)cc(-c2c(CN3CCCC3)nc(C)c([C@H](OC(C)(C)C)C(=O)O)c2N2CCC(C)(C)CC2)cc1F [Example 198, (2S)-2-(tert-Butoxy)-2-[5-(3,5-difluoro-4-methoxyphenyl)-4-(4,4-dimethylpiperidin-1-yl)-2-methyl-6-[(pyrrolidin-1-yl)methyl]pyridin-3-yl]acetic acid]	12 nM
COc1c(F)cc(-c2c(CN3CCCCCCC3)nc(C)c([C@H](OC(C)(C)C)C(=O)O)c2N2CCC(C)(C)CC2)cc1F [Example 199, (2S)-2-{6-[(Azocan-1-yl)methyl]-5-(3,5-difluoro-4-methoxyphenyl)-4-(4,4-dimethylpiperidin-1-yl)-2-methylpyridin-3-yl}-2-(tert-butoxy)acetic acid]	4 nM
CC1(C)CCN(c2c(-c3ccc(OCCc4ccc(F)cc4)cc3)cncc2[C@H](OC(C)(C)C)C(=O)O)CC1 [Example 200, (S)-2-(tert-Butoxy)-2-(4-(4,4-dimethylpiperidin-1-yl)-5-(4-(4-fluorophenethoxy)phenyl)pyridin-3-yl)acetic acid]	2 nM
CC1(C)CCN(c2c(-c3ccc(CNc4ncnc5c4oc4ccccc45)cc3)cnc(Cl)c2[C@H](OC(C)(C)C)C(=O)O)CC1 [Example 201, (S)-2-(5-(4-((Benzofuro[3,2-d]pyrimidin-4-ylamino)methyl)phenyl)-2-chloro-4-(4,4-dimethylpiperidin-1-yl)pyridin-3-yl)-2-(tert-butoxy)acetic acid]	1 nM
CC1(C)CCN(c2c(-c3ccc(OCCc4ccc(F)cc4)cc3)cnc(N3CCCC3)c2[C@H](OC(C)(C)C)C(=O)O)CC1 [Example 202, (S)-2-(tert-Butoxy)-2-(4-(4,4-dimethylpiperidin-1-yl)-5-(4-(4-fluorophenethoxy)phenyl)-2-(pyrrolidin-1-yl)pyridin-3-yl)acetic acid]	75 nM
